Key:
[1] = xn = mol fraction of the nth substance listed; details: 101 kPa, Liquid; for viscosity: Capillary tube (Ostwald / Ubbelohde) method; for mass density: Vibrating tube method
[2] = refractive index (Na D-line) (dimensionless); xn = mol fraction of the nth substance listed; details: 101 kPa, Liquid, Standard Abbe refractometry

C1C[C@@H]2[C@H]3CC[C@H](C3)[C@@H]2C1 [exo-tetrahydrodicyclopentadiene] + CCCCC1CCCCC1
Details	mass density, [1] [kg/m3]	refractive index, [2]	viscosity, [1] [mPa·s]
293.15 K, x1 = 0.1	811.06	1.444	1.391
293.15 K, x1 = 0.1993	822.96	1.4478	1.49
293.15 K, x1 = 0.2997	835.42	1.4521	1.602
293.15 K, x1 = 0.3991	848.2	1.4568	1.732
293.15 K, x1 = 0.5002	861.66	1.4613	1.879
293.15 K, x1 = 0.6005	875.49	1.466	2.044
293.15 K, x1 = 0.7	889.72	1.4712	2.234
293.15 K, x1 = 0.8004	904.57	1.4766	2.446
293.15 K, x1 = 0.8999	919.8	1.4818	2.688
293.15 K, x1 = 1	935.72	1.4874	2.992
298.15 K, x1 = 0.1	807.31	–	1.279
298.15 K, x1 = 0.1993	819.19	–	1.367
298.15 K, x1 = 0.2997	831.63	–	1.467
298.15 K, x1 = 0.3991	844.39	–	1.584
298.15 K, x1 = 0.5002	857.83	–	1.715
298.15 K, x1 = 0.6005	871.64	–	1.863
298.15 K, x1 = 0.7	885.86	–	2.032
298.15 K, x1 = 0.8004	900.7	–	2.224
298.15 K, x1 = 0.8999	915.95	–	2.438
298.15 K, x1 = 1	931.84	–	2.71
303.15 K, x1 = 0.1	803.53	1.4393	1.181
303.15 K, x1 = 0.1993	815.39	1.4435	1.261
303.15 K, x1 = 0.2997	827.82	1.448	1.351
303.15 K, x1 = 0.3991	840.57	1.4522	1.456
303.15 K, x1 = 0.5002	853.98	1.457	1.574
303.15 K, x1 = 0.6005	867.78	1.4619	1.707
303.15 K, x1 = 0.7	881.99	1.4669	1.858
303.15 K, x1 = 0.8004	896.81	1.4718	2.031
303.15 K, x1 = 0.8999	912.05	1.4774	2.223
303.15 K, x1 = 1	927.94	1.4831	2.467
308.15 K, x1 = 0.1	799.75	–	1.096
308.15 K, x1 = 0.1993	811.6	–	1.168
308.15 K, x1 = 0.2997	824.01	–	1.249
308.15 K, x1 = 0.3991	836.73	–	1.344
308.15 K, x1 = 0.5002	850.13	–	1.451
308.15 K, x1 = 0.6005	863.92	–	1.571
308.15 K, x1 = 0.7	878.11	–	1.707
308.15 K, x1 = 0.8004	892.92	–	1.862
308.15 K, x1 = 0.8999	908.14	–	2.036
308.15 K, x1 = 1	924.02	–	2.255
313.15 K, x1 = 0.1	795.96	1.435	1.02
313.15 K, x1 = 0.1993	807.79	1.4391	1.085
313.15 K, x1 = 0.2997	820.18	1.4435	1.159
313.15 K, x1 = 0.3991	832.89	1.448	1.245
313.15 K, x1 = 0.5002	846.27	1.4524	1.342
313.15 K, x1 = 0.6005	860.05	1.4575	1.451
313.15 K, x1 = 0.7	874.22	1.4626	1.573
313.15 K, x1 = 0.8004	889.02	1.4677	1.715
313.15 K, x1 = 0.8999	904.23	1.4728	1.872
313.15 K, x1 = 1	920.11	1.4786	2.069
318.15 K, x1 = 0.1	792.17	–	0.952
318.15 K, x1 = 0.1993	803.98	–	1.012
318.15 K, x1 = 0.2997	816.35	–	1.079
318.15 K, x1 = 0.3991	829.04	–	1.157
318.15 K, x1 = 0.5002	842.41	–	1.246
318.15 K, x1 = 0.6005	856.16	–	1.345
318.15 K, x1 = 0.7	870.32	–	1.456
318.15 K, x1 = 0.8004	885.11	–	1.585
318.15 K, x1 = 0.8999	900.32	–	1.727
318.15 K, x1 = 1	916.18	–	1.907

— the NIST ThermoML archive (doi:10.1021/je400529k)
